Experimental data as given in PubChem BioAssay AID248 (DTP/NCI, 2004).
Where “and” joins values, the source holds several entries; their conditions need not be identical. Identical values can stand only once. Inconclusive results and toxic doses are left out.

Tested on: L1210 leukemia ip in BDF1 mice, survival T/C
Assay: NCI In Vivo Anticancer Drug Screen. Data for tumor model L1210 Leukemia (intraperitoneal) in B6D2F1 (BDF1) mice
Conditions: endpoint: mean survival time, higher = longer survival
Outline: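 Transplanted-tumor mice were given test agent; controls received vehicle only. Survival readings from the two groups were divided (treated over control).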

[1] = dose: 100.0 mg/kg/injection, schedule: Q01DX001 (ip), vehicle: saline
[2] = dose: 200.0 mg/kg/injection, schedule: Q01DX001 (ip), vehicle: saline
[3] = dose: 400.0 mg/kg/injection, schedule: Q01DX001 (ip), vehicle: saline
[4] = dose: 100.0 mg/kg/injection, schedule: Q04DX003 (ip), vehicle: saline
[5] = dose: 100.0 mg/kg/injection, schedule: Q01DX001 (ip), vehicle: carboxymethylcellulose (CMC)
[6] = dose: 200.0 mg/kg/injection, schedule: Q01DX001 (ip), vehicle: carboxymethylcellulose (CMC)
[7] = dose: 400.0 mg/kg/injection, schedule: Q01DX001 (ip), vehicle: carboxymethylcellulose (CMC)
[8] = dose: 100.0 mg/kg/injection, schedule: Q01DX001 (ip), vehicle: Klucel (hydroxypropylcellulose) (HPC)
[9] = dose: 200.0 mg/kg/injection, schedule: Q01DX001 (ip), vehicle: Klucel (hydroxypropylcellulose) (HPC)
[10] = dose: 50.0 mg/kg/injection, schedule: Q01DX009 (ip), vehicle: Klucel (hydroxypropylcellulose) (HPC)
[11] = dose: 100.0 mg/kg/injection, schedule: Q01DX009 (ip), vehicle: Klucel (hydroxypropylcellulose) (HPC)
[12] = dose: 200.0 mg/kg/injection, schedule: Q01DX009 (ip), vehicle: Klucel (hydroxypropylcellulose) (HPC)

CC(C)C(CCN1CCCCC1)(CN=C(N)N)c1cccc2ccccc12 (configuration not stated)
T/C (dose: 5.0 mg/kg/injection, schedule: Q01DX009 (ip), vehicle: saline): 99 % of control | T/C (dose: 6.25 mg/kg/injection, schedule: Q04DX002 (ip), vehicle: saline): 100 % of control | T/C (dose: 10.0 mg/kg/injection, schedule: Q01DX009 (ip), vehicle: saline): 100 % of control | T/C (dose: 12.5 mg/kg/injection, schedule: Q04DX002 (ip), vehicle: saline): 93 % of control | T/C (dose: 20.0 mg/kg/injection, schedule: Q01DX009 (ip), vehicle: saline): 101 % of control | T/C (dose: 25.0 mg/kg/injection, schedule: Q04DX002 (ip), vehicle: saline): 97 % of control

O=S(=O)(Cc1ccccc1)Cc1ccccc1
T/C (dose: 50.0 mg/kg/injection, schedule: Q01DX001 (ip), vehicle: saline): 101 % of control | T/C [1]: 95 % of control | T/C (dose: 100.0 mg/kg/injection, schedule: Q04DX003 (ip), vehicle: saline with Tween-80): 96 % of control | T/C [2]: 95 % of control | T/C (dose: 200.0 mg/kg/injection, schedule: Q04DX003 (ip), vehicle: saline with Tween-80): 100 % of control | T/C [3]: 91 % of control | T/C (dose: 400.0 mg/kg/injection, schedule: Q04DX003 (ip), vehicle: saline with Tween-80): 100 % of control

C(CC1CCNCC1)CC1CCNCC1 (tested in a mixture with another compound)
T/C [1]: 94 % of control

COc1cc2ccc3c(c2cc1OC)CN(C)CC3
T/C (dose: 12.5 mg/kg/injection, schedule: Q01DX009 (ip), vehicle: saline): 91 % of control | T/C (dose: 25.0 mg/kg/injection, schedule: Q01DX009 (ip), vehicle: saline): 97 % of control | T/C (dose: 50.0 mg/kg/injection, schedule: Q01DX009 (ip), vehicle: saline): 100 % of control | T/C [4]: 103 % of control

CCC(C(C)C)C1NC1C(C)C1CCC2C3CC=C4CC(OC(C)=O)CCC4(C)C3CCC12C (configuration not stated)
T/C (dose: 100.0 mg/kg/injection, schedule: Q04DX003 (sc), vehicle: steriod suspending solution): 105 % of control | T/C (dose: 200.0 mg/kg/injection, schedule: Q04DX003 (sc), vehicle: steriod suspending solution): 103 % of control | T/C (dose: 400.0 mg/kg/injection, schedule: Q04DX003 (sc), vehicle: steriod suspending solution): 97 % of control

CCOC(=O)OCc1ccco1
T/C [5]: 94 % of control | T/C (dose: 100.0 mg/kg/injection, schedule: Q01DX009 (ip), vehicle: carboxymethylcellulose (CMC)): 101 % of control and 103 % of control | T/C (dose: 100.0 mg/kg/injection, schedule: Q04DX002 (ip), vehicle: carboxymethylcellulose (CMC)): 98 % of control and 100 % of control | T/C (dose: 100.0 mg/kg/injection, schedule: Q04DX003 (ip), vehicle: carboxymethylcellulose (CMC)): 102 % of control | T/C [6]: 89 % of control | T/C (dose: 200.0 mg/kg/injection, schedule: Q01DX009 (ip), vehicle: carboxymethylcellulose (CMC)): 97 % of control and 109 % of control | T/C (dose: 200.0 mg/kg/injection, schedule: Q04DX002 (ip), vehicle: carboxymethylcellulose (CMC)): 98 % of control and 101 % of control | T/C (dose: 200.0 mg/kg/injection, schedule: Q04DX003 (ip), vehicle: carboxymethylcellulose (CMC)): 96 % of control | T/C [7]: 110 % of control | T/C (dose: 400.0 mg/kg/injection, schedule: Q04DX002 (ip), vehicle: carboxymethylcellulose (CMC)): 103 % of control and 106 % of control | T/C (dose: 400.0 mg/kg/injection, schedule: Q04DX003 (ip), vehicle: carboxymethylcellulose (CMC)): 112 % of control

CC(O)CN(Cc1c(O)ccc2ccccc12)CC(C)OS(C)(=O)=O (configuration not stated)
T/C [1]: 97 % of control | T/C [2]: 93 % of control | T/C [3]: 95 % of control

S=c1[nH]c(=S)c2[nH]cnc(=S)c2[nH]1
T/C (dose: 2.0 mg/kg/injection, schedule: Q01DX Z (ip), vehicle: carboxymethylcellulose (CMC)): 103 % of control | T/C (dose: 4.0 mg/kg/injection, schedule: Q01DX Z (ip), vehicle: carboxymethylcellulose (CMC)): 91 % of control | T/C (dose: 8.0 mg/kg/injection, schedule: Q01DX Z (ip), vehicle: carboxymethylcellulose (CMC)): 89 % of control | T/C (dose: 12.5 mg/kg/injection, schedule: Q01DX Z (ip), vehicle: carboxymethylcellulose (CMC)): 91 % of control | T/C (dose: 25.0 mg/kg/injection, schedule: Q01DX Z (ip), vehicle: carboxymethylcellulose (CMC)): 96 % of control

Cc1ccc(C(=O)C2OC2c2ccccc2)cc1 (configuration not stated)
T/C [8]: 97 % of control | T/C [9]: 95 % of control | T/C (dose: 400.0 mg/kg/injection, schedule: Q01DX001 (ip), vehicle: Klucel (hydroxypropylcellulose) (HPC)): 89 % of control

O=C(CO)NCO
T/C [1]: 103 % of control | T/C [2]: 101 % of control | T/C [3]: 101 % of control

CN(C)CCCC1C2CCC(C2)C1C#N (configuration not stated)
T/C (dose: 12.5 mg/kg/injection, schedule: Q01DX009 (ip), vehicle: Klucel (hydroxypropylcellulose) (HPC)): 104 % of control | T/C (dose: 25.0 mg/kg/injection, schedule: Q01DX009 (ip), vehicle: Klucel (hydroxypropylcellulose) (HPC)): 95 % of control | T/C (dose: 25.0 mg/kg/injection, schedule: Q04DX003 (ip), vehicle: Klucel (hydroxypropylcellulose) (HPC)): 96 % of control | T/C [10]: 104 % of control | T/C (dose: 50.0 mg/kg/injection, schedule: Q04DX003 (ip), vehicle: Klucel (hydroxypropylcellulose) (HPC)): 93 % of control

CSc1ncc2ncn(C3OC(CO)C(O)C3O)c2n1 (configuration not stated)
T/C [5]: 108 % of control | T/C [11]: 91 % of control | T/C (dose: 100.0 mg/kg/injection, schedule: Q04DX003 (ip), vehicle: other): 110 % of control | T/C [6]: 102 % of control | T/C [12]: 98 % of control | T/C (dose: 200.0 mg/kg/injection, schedule: Q04DX003 (ip), vehicle: other): 95 % of control | T/C [7]: 98 % of control | T/C (dose: 400.0 mg/kg/injection, schedule: Q01DX009 (ip), vehicle: Klucel (hydroxypropylcellulose) (HPC)): 89 % of control | T/C (dose: 400.0 mg/kg/injection, schedule: Q04DX003 (ip), vehicle: other): 100 % of control

CCC(Cl)COP(=O)(OCC(Cl)CC)C(OP(=S)(OCC(Cl)CC)OCC(Cl)CC)c1ccc(Cl)c(Cl)c1 (configuration not stated)
T/C (dose: 25.0 mg/kg/injection, schedule: Q04DX002 (sc), vehicle: olive oil, sesame oil, peanut oil): 123 % of control | T/C (dose: 50.0 mg/kg/injection, schedule: Q04DX002 (sc), vehicle: olive oil, sesame oil, peanut oil): 108 % of control | T/C (dose: 100.0 mg/kg/injection, schedule: Q04DX002 (sc), vehicle: olive oil, sesame oil, peanut oil): 118 % of control

COc1ccc([N+](=O)[O-])cc1NC(=O)Nc1ccc(N(C)C(C)=O)cc1
T/C [10]: 105 % of control | T/C [11]: 111 % of control | T/C [12]: 101 % of control

CC(=O)OC1CCC2CCCCC2/C1=N\O (configuration not stated)
T/C (dose: 50.0 mg/kg/injection, schedule: Q04DX003 (ip), vehicle: saline): 112 % of control | T/C [4]: 95 % of control | T/C (dose: 200.0 mg/kg/injection, schedule: Q04DX003 (ip), vehicle: saline): 97 % of control

O=NN(CCO)C(=O)Nc1c[nH]c(=O)[nH]c1=O
T/C (dose: 12.5 mg/kg/injection, schedule: Q01DX001 (ip), vehicle: carboxymethylcellulose (CMC)): 118 % of control | T/C (dose: 25.0 mg/kg/injection, schedule: Q01DX001 (ip), vehicle: carboxymethylcellulose (CMC)): 118 % of control | T/C (dose: 50.0 mg/kg/injection, schedule: Q01DX001 (ip), vehicle: carboxymethylcellulose (CMC)): 122 % of control | T/C [7]: 190 % of control

COc1cc(C)c([N+](=O)[O-])cc1OC
T/C [1]: 106 % of control | T/C [2]: 97 % of control | T/C [3]: 101 % of control

OC(c1ccccc1)(c1ccccc1)C(c1ccccc1)c1ccccc1
T/C (dose: 100.0 mg/kg/injection, schedule: Q04DX003 (ip), vehicle: acetone): 93 % of control | T/C (dose: 200.0 mg/kg/injection, schedule: Q04DX003 (ip), vehicle: acetone): 97 % of control | T/C (dose: 400.0 mg/kg/injection, schedule: Q04DX003 (ip), vehicle: acetone): 87 % of control

CC(C)(C)OC(=O)N1C2C=CC(C2)N1C(=O)OC(C)(C)C
T/C (dose: 100.0 mg/kg/injection, schedule: Q01DX001 (ip), vehicle: other): 101 % of control | T/C (dose: 100.0 mg/kg/injection, schedule: Q04DX003 (ip), vehicle: Klucel (hydroxypropylcellulose) (HPC)): 102 % of control | T/C (dose: 200.0 mg/kg/injection, schedule: Q01DX001 (ip), vehicle: other): 104 % of control | T/C (dose: 200.0 mg/kg/injection, schedule: Q04DX003 (ip), vehicle: Klucel (hydroxypropylcellulose) (HPC)): 98 % of control | T/C (dose: 400.0 mg/kg/injection, schedule: Q01DX001 (ip), vehicle: other): 96 % of control | T/C (dose: 400.0 mg/kg/injection, schedule: Q04DX003 (ip), vehicle: Klucel (hydroxypropylcellulose) (HPC)): 109 % of control

O=C(COc1ccccc1)Nc1cccnc1
T/C [8]: 94 % of control | T/C [9]: 102 % of control
